In PubChem BioAssay AID1963977 (Molecular Pharmacology Branch, DTP, NCI, 2024):

Tested on: 624824-186-R-J3-PDC multicell spheroids, viability
Assay: Anticancer human tumor 624824-186-R-J3-PDC patient-derived colon adenocarcinoma cell line growth inhibition [PI3K]
Details: for viability, T/C: stronger effect = lower value
Source text: Combinatorial screen of targeted agents with the PI3K inhibitors inavolisib, alpelisib, duvelisib, and copanlisib in multi-cell type tumor spheroids
A high-throughput screen of multi-cell type tumor spheroids was designed to identify active combinations of targeted small molecules and PI3K pathway inhibitors. Complex spheroids include a stromal component modeled by human endothelial cells (HUVEC) and fibroblasts modeled by human mesenchymal stem cells (MSCs). The concentration ranges selected for each drug and investigational agent were based upon clinically achievable concentrations if the clinical Cmax of the agent was known.
Compounds. The drugs and investigational agents: inavolisib (NSC800729), alpelisib (NSC765974), duvelisib (NSC772469), copanlisib (NSC816437), ipatasertib (NSC767898), afuresertib (NSC778305), talazoparib (NSC767125), sapanisertib (NSC764658), selumetinib (NSC741078), tovorafenib (DAY101, NSC766906), vemurafenib (NSC761431), ravoxertinib (NSC781343), sotorasib (NSC818433), MRTX1133 (NSC 836407), abemaciclib (NSC 768073), palbociclib (NSC758247), venetoclax (NSC 766270), SY5609 (NSC837396), enzalutamide (NSC755605), and darolutamide (NSC825331), were obtained from the National Cancer Institute (NCI) Developmental Therapeutics Program Chemical Repository. The FDA-approved anticancer drug set is available from the NCI Developmental Therapeutics Program. […] The stock solutions were prepared in dimethyl sulfoxide (DMSO, Sigma-Aldrich, St. Louis, MO, cat. D2650) at 800-fold the tested concentration and stored at -70 degrees C prior to their use. All drugs and investigational agents were tested over a range starting from a high concentration at or near the clinical Cmax and decreasing in half-log increments. If the clinical Cmax for an agent had not been determined, the highest concentration tested was 10 microM.
Cell Culture. All cells were maintained in an incubator at 37 degrees C and 5% CO2 with 95% humidity. The PDC lines were cultured according to standard operating procedures established by the NCI PDMR (https://pdmr.cancer.gov/sops/default.htm). All PDCs were thawed and cultured in Matrigel-coated flasks prepared with a working solution of 1X Ham's F-12 nutrient mix, without supplementation (Invitrogen, Waltham, MA, cat. 11765054), 100 U/mL penicillin-streptomycin (Invitrogen, cat. 15140122), and 2.5% Matrigel (Corning Inc., Corning, NY, cat. 354248) for the first three passages. The 354836-022-R-J1-PDC, 475296-252-R-J1-PDC, and 997726-040-R-J2-PDC lines were cultured in 6A media, which includes advanced DMEM/F-12 (Thermo Fisher Scientific, cat. 12634028), 10 mM HEPES (Thermo Fisher Scientific, cat. 15630080), 1X GlutaMAX supplement (Thermo Fisher Scientific, cat. 35050061), 0.1 mg/mL primocin (InvivoGen, San Diego, CA, cat. ant-pm-2), 10% defined fetal bovine serum, heat inactivated (HyClone Laboratories Inc., Logan, UT, cat. SH30070.03HI), 50% L-WRN conditioned media (ATCC, cat. CRL-3276), 1.25 mM N-Acetyl-L-cysteine (Sigma-Aldrich, cat. A9165), 10 mM nicotinamide (Sigma-Aldrich, cat. N0636), 1X B-27 supplement (Thermo Fisher Scientific, cat. 17504044), 1X N-2 supplement (Thermo Fisher Scientific, cat. 17502048), and 10 microM Y-27632 dihydrochloride (Tocris Bioscience, Bristol, United Kingdom, cat. 1254). The 624824-186-R-J2-PDC line was cultured in 6C/Colon 1B media, which includes all 6A media components plus 50 ng/mL human EGF recombinant protein (Thermo Fisher Scientific, cat. PHG0311). […]

[1] = curve of first compound, second compound 0.00316 µM
[2] = curve of first compound, second compound 0.01 µM
[3] = curve of first compound, second compound 0.0316 µM
[4] = curve of first compound, second compound 0.1 µM
[5] = curve of first compound, second compound 0.316 µM
[6] = curve of first compound, second compound 1 µM
[7] = second compound 0.00316 µM, first compound 0.0316 µM
[8] = second compound 0.00316 µM, first compound 0.1 µM
[9] = second compound 0.00316 µM, first compound 0.316 µM
[10] = second compound 0.00316 µM, first compound 1 µM
[11] = second compound 0.00316 µM, first compound 3.16 µM
[12] = second compound 0.00316 µM, first compound 10 µM
[13] = second compound 0.01 µM, first compound 0.0316 µM
[14] = second compound 0.01 µM, first compound 0.1 µM
[15] = second compound 0.01 µM, first compound 0.316 µM
[16] = second compound 0.01 µM, first compound 1 µM
[17] = second compound 0.01 µM, first compound 3.16 µM
[18] = second compound 0.01 µM, first compound 10 µM
[19] = second compound 0.0316 µM, first compound 0.0316 µM
[20] = second compound 0.0316 µM, first compound 0.1 µM
[21] = second compound 0.0316 µM, first compound 0.316 µM
[22] = second compound 0.0316 µM, first compound 1 µM
[23] = second compound 0.0316 µM, first compound 3.16 µM
[24] = second compound 0.0316 µM, first compound 10 µM
[25] = second compound 0.1 µM, first compound 0.0316 µM
[26] = second compound 0.1 µM, first compound 0.1 µM
[27] = second compound 0.1 µM, first compound 0.316 µM
[28] = second compound 0.1 µM, first compound 1 µM
[29] = second compound 0.1 µM, first compound 3.16 µM
[30] = second compound 0.1 µM, first compound 10 µM
[31] = second compound 0.316 µM, first compound 0.0316 µM
[32] = second compound 0.316 µM, first compound 0.1 µM
[33] = second compound 0.316 µM, first compound 0.316 µM
[34] = second compound 0.316 µM, first compound 1 µM
[35] = second compound 0.316 µM, first compound 3.16 µM
[36] = second compound 0.316 µM, first compound 10 µM
[37] = second compound 1 µM, first compound 0.0316 µM
[38] = second compound 1 µM, first compound 0.1 µM
[39] = second compound 1 µM, first compound 0.316 µM
[40] = second compound 1 µM, first compound 1 µM
[41] = second compound 1 µM, first compound 3.16 µM
[42] = second compound 1 µM, first compound 10 µM
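Further: spheroids exposed to agents for seven days before luminescence read.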
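Wherever viability, T/C is given: luminescent signal used as a stand-in for spheroid viability; percent viability relative to DMSO vehicle control wells taken as 100%.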

CCCS(=O)(=O)Nc1ccc(F)c(C(=O)c2c[nH]c3ncc(-c4ccc(Cl)cc4)cc23)c1F + CC(Nc1ccc2c(c1)OCCn1cc(N3C(=O)OCC3C(F)F)nc1-2)C(N)=O
IC50 [1]: 5 µM | IC50 [2]: 4.15 µM | IC50 [3]: 3.38 µM | IC50 [4]: 1.39 µM | IC50 [5]: 0.637 µM | IC50 [6]: 0.353 µM | viability, T/C [7]: 93.5% | viability, T/C [8]: 89.6% | viability, T/C [9]: 98.9% | viability, T/C [10]: 88% | viability, T/C [11]: 71.9% | viability, T/C [12]: 17.3% | viability, T/C [13]: 100% | viability, T/C [14]: 94.1% | viability, T/C [15]: 86.9% | viability, T/C [16]: 74.4% | viability, T/C [17]: 67.9% | viability, T/C [18]: 12.9% | viability, T/C [19]: 103% | viability, T/C [20]: 92.8% | viability, T/C [21]: 83.4% | viability, T/C [22]: 73.7% | viability, T/C [23]: 55.6% | viability, T/C [24]: 13.9% | viability, T/C [25]: 99% | viability, T/C [26]: 86.1% | viability, T/C [27]: 76.8% | viability, T/C [28]: 48.6% | viability, T/C [29]: 40.9% | viability, T/C [30]: 14.1% | viability, T/C [31]: 95.2% | viability, T/C [32]: 87.7% | viability, T/C [33]: 56.7% | viability, T/C [34]: 41.8% | viability, T/C [35]: 30.6% | viability, T/C [36]: 13.3% | viability, T/C [37]: 77.7% | viability, T/C [38]: 69.5% | viability, T/C [39]: 44.4% | viability, T/C [40]: 38.1% | viability, T/C [41]: 32.3% | viability, T/C [42]: 11.6%

Cn1ncc(Cl)c1-c1cc(C(=O)NC(CN)Cc2cccc(F)c2)sc1Cl (configuration not stated) + COc1c(OCCCN2CCOCC2)ccc2c3n(c(=NC(=O)c4cnc(N)nc4)nc12)CCN3
IC50 [1]: 9.34 µM | IC50 [2]: > 10 µM | IC50 [3]: 4.16 µM | IC50 [4]: 2.59 µM | IC50 [5]: 0.455 µM | IC50 [6]: < 0.0316 µM | viability, T/C [7]: 106% | viability, T/C [8]: 96.6% | viability, T/C [9]: 92% | viability, T/C [10]: 74.8% | viability, T/C [11]: 68.5% | viability, T/C [12]: 47.2% | viability, T/C [13]: 97.6% | viability, T/C [14]: 99.3% | viability, T/C [15]: 95% | viability, T/C [16]: 71.1% | viability, T/C [17]: 57.3% | viability, T/C [18]: 48.6% | viability, T/C [19]: 94.2% | viability, T/C [20]: 96.4% | viability, T/C [21]: 83.6% | viability, T/C [22]: 82.5% | viability, T/C [23]: 52.8% | viability, T/C [24]: 37.2% | viability, T/C [25]: 78.8% | viability, T/C [26]: 80.5% | viability, T/C [27]: 75.4% | viability, T/C [28]: 60.9% | viability, T/C [29]: 48.8% | viability, T/C [30]: 33% | viability, T/C [31]: 54.2% | viability, T/C [32]: 54.5% | viability, T/C [33]: 51.5% | viability, T/C [34]: 46% | viability, T/C [35]: 39.9% | viability, T/C [36]: 25.9% | viability, T/C [37]: 32.4% | viability, T/C [38]: 26.8% | viability, T/C [39]: 27.8% | viability, T/C [40]: 32.2% | viability, T/C [41]: 29.7% | viability, T/C [42]: 21.7%

C#Cc1c(F)ccc2cc(O)cc(-c3ncc4c(N5CC6CCC(C5)N6)nc(OCC56CCCN5CC(F)C6)nc4c3F)c12 (configuration not stated) + CC(Nc1ncnc2nc[nH]c12)c1cc2cccc(Cl)c2c(=O)n1-c1ccccc1
IC50 [3]: > 10 µM | IC50 [4]: > 10 µM | IC50 [5]: > 10 µM | IC50 [6]: > 10 µM | IC50 (curve of first compound, second compound 3.16 µM): > 10 µM | IC50 (curve of first compound, second compound 10 µM): > 10 µM | viability, T/C [19]: 115% | viability, T/C [20]: 93.2% | viability, T/C [21]: 104% | viability, T/C [22]: 101% | viability, T/C [23]: 97% | viability, T/C [24]: 117% | viability, T/C [25]: 106% | viability, T/C [26]: 99.2% | viability, T/C [27]: 117% | viability, T/C [28]: 113% | viability, T/C [29]: 105% | viability, T/C [30]: 115% | viability, T/C [31]: 88.4% | viability, T/C [32]: 103% | viability, T/C [33]: 109% | viability, T/C [34]: 102% | viability, T/C [35]: 114% | viability, T/C [36]: 115% | viability, T/C [37]: 102% | viability, T/C [38]: 110% | viability, T/C [39]: 108% | viability, T/C [40]: 103% | viability, T/C [41]: 111% | viability, T/C [42]: 112% | viability, T/C (second compound 3.16 µM, first compound 0.0316 µM): 96% | viability, T/C (second compound 3.16 µM, first compound 0.1 µM): 105% | viability, T/C (second compound 3.16 µM, first compound 0.316 µM): 105% | viability, T/C (second compound 3.16 µM, first compound 1 µM): 95.3% | viability, T/C (second compound 3.16 µM, first compound 3.16 µM): 100% | viability, T/C (second compound 3.16 µM, first compound 10 µM): 110% | viability, T/C (second compound 10 µM, first compound 0.0316 µM): 96.3% | viability, T/C (second compound 10 µM, first compound 0.1 µM): 97% | viability, T/C (second compound 10 µM, first compound 0.316 µM): 94.5% | viability, T/C (second compound 10 µM, first compound 1 µM): 92.8% | viability, T/C (second compound 10 µM, first compound 3.16 µM): 98.3% | viability, T/C (second compound 10 µM, first compound 10 µM): 85.7%

CC(Nc1ncnc2nc[nH]c12)c1cc2cccc(Cl)c2c(=O)n1-c1ccccc1 (configuration not stated)
viability, T/C (compound 0.0316 µM): 103% [middle of 8 runs] | viability, T/C (compound 0.316 µM): 106% [middle of 8 runs] | viability, T/C (compound 1 µM): 108% [middle of 8 runs] | viability, T/C (compound 3.16 µM): 106% [middle of 8 runs] | viability, T/C (compound 10 µM): 94.7% [middle of 8 runs] | IC50 (compound alone, run of 04/25/2023): > 10 µM
